Results: PubChem BioAssay (NCI)
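Here, GI50 denotes the concentration required for 50% inhibition of growth. TGI: concentration producing complete growth inhibition.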

What was measured:
Test in all cases: NCI anticancer screen, dose series, 384-well format
CCRF-CEM leukemia = tested on: CCRF-CEM leukemia
UO-31 renal = tested on: UO-31 renal
HCT-116 colon = tested on: HCT-116 colon
ACHN renal = tested on: ACHN renal
DU-145 prostate = tested on: DU-145 prostate
MDA-MB-435 melanoma = tested on: MDA-MB-435 melanoma
MDA-MB-468 breast = tested on: MDA-MB-468 breast
MOLT-4 leukemia = tested on: MOLT-4 leukemia
NCI-H522 lung = tested on: NCI-H522 lung
A549 NSCLC = tested on: A549 NSCLC
SK-OV-3 ovarian = tested on: SK-OV-3 ovarian
SF-539 CNS = tested on: SF-539 CNS
U251 glioblastoma = tested on: U251 glioblastoma
TK-10 renal = tested on: TK-10 renal
SK-MEL-5 melanoma = tested on: SK-MEL-5 melanoma
OVCAR-8 ovarian = tested on: OVCAR-8 ovarian
A498 renal = tested on: A498 renal
T-47D breast = tested on: T-47D breast
NCI-H322M lung = tested on: NCI-H322M lung
COLO 205 colon = tested on: COLO 205 colon
NCI-H460 NSCLC = tested on: NCI-H460 NSCLC
SNB-19 CNS = tested on: SNB-19 CNS
SN12C renal = tested on: SN12C renal
SK-MEL-28 melanoma = tested on: SK-MEL-28 melanoma
OVCAR-3 ovarian = tested on: OVCAR-3 ovarian
K-562 leukemia = tested on: K-562 leukemia
OVCAR-4 ovarian = tested on: OVCAR-4 ovarian
786-0 renal = tested on: 786-0 renal
MDA-MB-231 breast = tested on: MDA-MB-231 breast
HCC-2998 colon = tested on: HCC-2998 colon
HCT-15 colon = tested on: HCT-15 colon
HOP-92 NSCLC = tested on: HOP-92 NSCLC
OVCAR-5 ovarian = tested on: OVCAR-5 ovarian
SF-295 CNS = tested on: SF-295 CNS
LOX IMVI melanoma = tested on: LOX IMVI melanoma
UACC-257 melanoma = tested on: UACC-257 melanoma
MALME-3M melanoma = tested on: MALME-3M melanoma
EKVX NSCLC = tested on: EKVX NSCLC

CCOC(=O)c1ccc2[nH]c(Cc3[nH]c4ccc(C(=O)OCC)cc4c3C)c(C)c2c1
GI50 (CCRF-CEM leukemia): 0.763 µM
TGI (CCRF-CEM leukemia): 11.7 µM
GI50 (UO-31 renal): 3.36 µM
TGI (UO-31 renal): 18.9 µM
GI50 (HCT-116 colon): 0.472 µM
TGI (HCT-116 colon): 2.41 µM
GI50 (ACHN renal): 1.8 µM
TGI (ACHN renal): 8.24 µM
GI50 (DU-145 prostate): 3.05 µM
TGI (DU-145 prostate): 17 µM
GI50 (MDA-MB-435 melanoma): 4.68 µM
TGI (MDA-MB-435 melanoma): 61.4 µM
GI50 (MDA-MB-468 breast): 1.08 µM
TGI (MDA-MB-468 breast): 7.27 µM
GI50 (MOLT-4 leukemia): 0.0514 µM
TGI (MOLT-4 leukemia): 0.274 µM
GI50 (NCI-H522 lung): 1.69 µM
TGI (NCI-H522 lung): 12.1 µM
GI50 (A549 NSCLC): 1.92 µM
TGI (A549 NSCLC): 14.6 µM
GI50 (SK-OV-3 ovarian): 4.64 µM
TGI (SK-OV-3 ovarian): 18.6 µM
GI50 (SF-539 CNS): 1.3 µM
TGI (SF-539 CNS): 7.85 µM
GI50 (U251 glioblastoma): 1.13 µM
TGI (U251 glioblastoma): 6.01 µM
GI50 (TK-10 renal): 0.498 µM
TGI (TK-10 renal): 11.4 µM
GI50 (SK-MEL-5 melanoma): 1.23 µM
TGI (SK-MEL-5 melanoma): 2.8 µM
GI50 (OVCAR-8 ovarian): 1.56 µM
TGI (OVCAR-8 ovarian): 11.1 µM
GI50 (A498 renal): 2.36 µM
TGI (A498 renal): 10.6 µM
GI50 (T-47D breast): 2.88 µM
TGI (T-47D breast): 9.2 µM
GI50 (NCI-H322M lung): 4.26 µM
TGI (NCI-H322M lung): 19.7 µM
GI50 (COLO 205 colon): 0.344 µM
TGI (COLO 205 colon): 14.5 µM
GI50 (NCI-H460 NSCLC): 0.281 µM
TGI (NCI-H460 NSCLC): 2.07 µM
GI50 (SNB-19 CNS): 5.4 µM
TGI (SNB-19 CNS): 21.3 µM
GI50 (SN12C renal): 3.08 µM
TGI (SN12C renal): 12.6 µM
GI50 (SK-MEL-28 melanoma): 3.4 µM
TGI (SK-MEL-28 melanoma): 23.1 µM
GI50 (OVCAR-3 ovarian): 2.97 µM
TGI (OVCAR-3 ovarian): 12.7 µM
GI50 (K-562 leukemia): 0.356 µM
TGI (K-562 leukemia): 12.3 µM
GI50 (OVCAR-4 ovarian): 3.11 µM
TGI (OVCAR-4 ovarian): 14.3 µM
GI50 ([…]-0 renal): 1.4 µM
TGI (786-0 renal): 11.7 µM
GI50 (MDA-MB-231 breast): 0.601 µM
TGI (MDA-MB-231 breast): 12.1 µM
GI50 (HCC-2998 colon): 1.56 µM
TGI (HCC-2998 colon): 16.1 µM
GI50 (HCT-15 colon): 0.0286 µM
TGI (HCT-15 colon): 6.55 µM
GI50 (HOP-92 NSCLC): 2.07 µM
TGI (HOP-92 NSCLC): 7.98 µM
GI50 (OVCAR-5 ovarian): 2.73 µM
TGI (OVCAR-5 ovarian): 32.1 µM
GI50 (SF-295 CNS): 0.464 µM
TGI (SF-295 CNS): 4.59 µM
GI50 (LOX IMVI melanoma): 0.481 µM
TGI (LOX IMVI melanoma): 1.91 µM
GI50 (UACC-257 melanoma): 9.7 µM
TGI (UACC-257 melanoma): 25.3 µM
GI50 (MALME-3M melanoma): 1.63 µM
TGI (MALME-3M melanoma): 6.41 µM
GI50 (EKVX NSCLC): 4.62 µM
TGI (EKVX NSCLC): 18.2 µM
